Assay results from PMC5442318, “Hundreds of dual-stage antimalarial molecules discovered by a functional gametocyte screen” (Nature Communications, 2017).
Like-named read-outs stand apart in the source and are kept apart here.

Experiments:
[1] = test system: P. falciparum asexual blood stages; details: TCAMS data, cited from earlier work; for IC50: ref 1 (Gamo et al., 2010), read-out: Pf Asexual blood stages XC50; for Pf Asexual stages XC50: ref 1 (Gamo, F. J. et al., Nature 465, 305-310, 2010)
[2] = test system: P. falciparum stage V female gametocytes; test: P. falciparum female gametocyte activation assay (Pf FGAA), 24 h or 48 h preincubation, Pfs25 expression readout; format: cell-based, Plasmodium falciparum NF54; details: for Pf FGAA classification: SLOW / FAST / GAMETE from activity at 48h, 24h, 0h incubation
Outline: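 Female activation, triggered by xanthurenic acid and cooling, was scored by imaging Cy3-labelled anti-Pfs25 female gametes after 24 h at 26 °C. Beforehand, purified NF54 stage V gametocytes had been incubated with compound for either 24 h or 48 h (37 °C, 3% O2). Values are pIC50 from full-curve regression.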

[3] = test system: P. falciparum female gametes; test: Pf FGAA with compounds added 30 min after triggering gametocyte activation (gamete-targeting); format: cell-based, Plasmodium falciparum NF54; details: 0h incubation time
[4] = test system: P. falciparum stages IV–V gametocytes; test: Gametocytocidal ATP-depletion assay (gametocyte ATP bioluminescence); format: cell-based, Plasmodium falciparum
Outline: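 Read-out is luciferase luminescence of parasite ATP (BacTiter-Glo), standing in for viability. Double-purified mature stage IV–V gametocytes, 12,500 per well, were exposed 48 h at 37 °C in low-O2 gas; screening concentration 2 μM.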

[5] = Artificial membrane permeability assay (AMPA); format: in vitro ADME; details: 10 μM, pH 7.05, 3 h
Protocol: It is a 96-well plate-based assay that measures the speed of permeation of a compound (at 10 μM concentration) through a phospholipid membrane, consisting in 1.8% egg L-a-phosphatidylcholine (830051, Avanti Polar Lipids) and 1% cholesterol (C8667, Sigma) dissolved in n-decane (D0011, TCI American). Phosphate buffer (50 mM Na2HPO4 with 0.5% 2-hydroxypropyl-b-cyclodextrin), pH 7.05, is added to the top and bottom of the plate (S5EJ046I08, MilliPore Corp.). The lipids are allowed to form bilayers across the small holes in the filter and compound concentration is measured 3 h later in both donor and the acceptor compartments by HPLC (Agilent 1100 LC). Permeability (P) (nm s^−1) is calculated using the following formulas:
where X=VD/VR; CR and CD are final concentrations in receiver and donor side, respectively; VR and VD are volumes in receiver and donor compartment, respectively; A is the area (cm^2) and t is the incubation time (s). The considered cut-off values are as follows: High: P>200 nm s^−1; Medium: 10 nm s^−1<P<200 nm s^−1; Low: P<10 nm s^−1.

HepG2 cells = test: HepG2 cytotoxicity assay; format: cell-based; details: mean
Outline: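 Once incubation ended, the HepG2 plates were warmed to room temperature for 30 min alongside the CellTiter-Glo reagent. Luminescent signal was developed by reagent addition and stabilized for 10 min before plate reading.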

[6] = test system: Plasmodium berghei asexual blood stages; test: In vivo antimalarial therapeutic efficacy, P. berghei murine model; set-up: species or system CD1 mice
Protocol: Two out of the six compounds progressed to SMFA, TCMDC-123767 (cluster 30) and TCMDC-141154 (cluster 4), were evaluated in vivo in the Plasmodium berghei murine model. Selection criteria was based on the compound potencies in both asexual stages and gametocytes in the Pf FGAA, as well as on their transmission-blocking activity observed in the SMFA (Table 1). Owing to compound availability, TCMDC-141154 had to be replaced by a close analogue from cluster 4: TCMDC-140549 (Supplementary Data 3). Compounds were tested at 50 mg kg^−1 single dose 2-day oral treatment and efficacy was measured as a reduction of asexual blood stages parasitaemia greater than 40% compared with the vehicle-treated mice.
Pathogen-free CD1 mice (Hsd:ICR) were obtained from Harlan Interfauna Iberica (Barcelona, Spain). Eight weeks old female CD-1 mice were infected intravenously with 10^7 infected erythrocytes (day 0). Dosing solutions were prepared in water containing 5% DMSO/20% Captisol, at a target dose of 50 mg kg^−1. Mice received two oral doses once a day according to their body weight (20 ml kg^−1) starting at day 2 after infection. Control mice received the same treatment schedule with the vehicle used for the compound preparation. Samples from mice peripheral blood were taken before starting treatment and 24 h after finishing the dosing, to measure parasitaemia by flow cytometry, using the YOYO-1 staining, to assess the reduction of parasitaemia compared with the vehicle-treated mice.

[7] = 24h incubation time, read-out: Pf FGAA IC50 (µM) 24h
[8] = mean, read-out: Gametocytes mean Pf FGAA IC50

IC50 [2, 7] [µM]	IC50 [2, 8] [µM]	IC50 [3] [µM]	permeability through artificial membranes [5] [×10⁻⁶ cm/s]	SMILES	IC50 [1] [nM]	Pf Asexual stages XC50 [1] [nM]	Pf FGAA classification [2]	Gametocytes mean ATP inhibition at 2µM (%) [4] [%]	HepG2 cells mean TOX50 (HepG2 cells) [µM]	reduction of asexual blood stages parasitaemia (threshold 40% vs vehicle) ([6]; 50 mg kg^−1 single dose 2-day oral treatment, mice)	ED50 ([6]; single dose 2-day treatment, oral, P. berghei mice) [mg/kg]
3.56	1.01	0.51	17	CC(C)(C)CNCC(C)(C)c1nc(-c2ccc(Cl)c(O)c2)c(-c2ccncc2)[nH]1.Cl [TCMDC-140549]	600	600	GAMETE	-11.46	11.63	not reduced above the threshold	> 50
1.54	0.69	> 20	–	CN1CCN(c2cc3c(cc2Cl)CCN3C(=O)Nc2ccc(NC(=O)c3ccc(C(F)(F)F)cc3)cc2)CC1.Cl [TCMDC-139270]	510	1100	FAST	1.67	3.99	–	–
